# PMC4526861, “Inhibition of protein kinase C by isojacareubin suppresses hepatocellular carcinoma metastasis and induces apoptosis in vitro and in vivo” (Scientific Reports, 2015)
# Key:
# HepG2 cells [1] = assay: Cell proliferation assay (CCK-8), HepG2; type: cell-based, human; settings: for IC50: Homo sapiens, HepG2, mean ± SD, at least three independent experiments; for Inhibitory Ratio (%) HepG2: 50 μM
# Description: (§1) The human HCC cell lines QGY-7703, SMMC-7721 and HepG2 and the liver cell line QSG-7701 were supplied by the Cell Resource Center, Institute of Life Sciences, Chinese Academy of Medical Science. QGY-7703, SMMC-7721 and QSG-7701 cells were cultured in 1640 medium (Gibco), and HepG2 cells were cultured in DMEM medium (Gibco) at 37 °C in moist air supplemented with 5% CO2. All media were supplemented with 10% fetal bovine serum (FBS) and 100 Units/mL of penicillin/streptomycin.
# (§2) The cell viability assay was performed as previously reported using a Cell Counting Kit-8 (CCK-8; Dojindo, Kumamoto, Japan)[33][34]. The relative cell viability was presented as % inhibition and calculated using the following formula: […]
# QGY-7703 cells = assay: Cell proliferation assay (CCK-8), QGY-7703; type: cell-based, human; settings: for IC50: Homo sapiens, QGY-7703, mean ± SD, at least three independent experiments; for Inhibitory Ratio (%) QGY-7703: 50 μM
# Description: as §1, §2
# SMMC-7721 cells = assay: Cell proliferation assay (CCK-8), SMMC-7721; type: cell-based, human; settings: Homo sapiens, SMMC-7721; mean ± SD, at least three independent experiments
# Description: as §1, §2
# QSG-7701 hepatocytes = assay: Cell proliferation assay (CCK-8), QSG-7701 hepatocytes; type: cell-based, human; settings: Homo sapiens, QSG7701; nonmalignant hepatocytes; mean ± SD
# Description: as §1, §2
# PKCζ = assay: Western blot of PKC isoform expression in cytosol and membrane; type: cell-based, human; settings: HepG2, 24 h incubation
# Description: To further determine whether compound 7 and ISJ represent potential candidates for selective PKC expression inhibitors against hepatoma, the expression of PKC isoforms in HepG2 cells was characterized by western blotting. After 24 h of incubation with GFX, GO, ISJ and compound 7 at the indicated concentrations, PKC proteins from the cytosol and membrane of HepG2 cells were evaluated. ISJ and compound 7 treatments reduced both the cytosol and cell membrane expression of PKCζ.
# (§3) The total membrane and cytosolic proteins were extracted using a Membrane and Cytosol Protein Extraction Kit (Beyotime). Extracted proteins from cells or animal tissues were separated by SDS-PAGE and transferred to polyvinylidene difluoride (PVDF) membranes (Bio-Rad). The PVDF membranes were blocked with 5% nonfat milk and incubated with primary antibodies overnight, followed by incubation with a donkey anti-rabbit or anti-mouse secondary antibody (IRDye 800, LI-COR, Biosciences). The images were captured using the Odyssey Infrared Imaging System (LI-COR, Biosciences), according to the manufacturer's instructions. The intensity was quantitative with Quantity One software (Bio-Rad). To ensure equal protein loading, each membrane was stripped and reprobed with an anti-β-actin antibody. All experiments were repeated independently no less than three times.
# [2] = system: c-PARP, c-Cas3 and c-Cas9 in xenograft tumors; assay: Histology, IHC and immunoblot of xenograft tumors; type: in vivo, BALB/c-nu nude mice; settings: 5 mg/kg
# Description: as §3
# To further confirm the antitumor activities of compound 7 and ISJ in vivo, histological analysis was performed on the hepatoma xenografts. Briefly, the samples were fixed in a 10% formalin solution, processed, embedded, sectioned and either H&E stained to reveal tumor tissue necrosis or IHC stained using antibodies against c-PARP, c-Cas3 or c-Cas9. The H&E and IHC images were obtained on a Leica DMI3000 B phase-contrast microscopy. The immunoreactive areas in the IHC images were quantified using ImagePro Plus 6.0 software (Media Cybernetics, Silver Spring, MD). The integrated optical density (IOD) values were represented as the mean ± SEM.
# HepG2 xenografts = assay: Antitumor activity in vivo, HepG2 xenograft; parameters: species or system BALB/c-nu nude mice; settings: 5 mg/kg, tail vein injection every other day for two weeks
# Description: Four-week-old male BALB/c-nu nude mice (15–20 g) were obtained from the Shanghai SLAC Laboratory Animal Co., Ltd. (Shanghai, China). The animals were maintained under specific pathogen-free conditions with food and water supplied ad libitum in the Laboratory Animal Center of the Second Military Medical University. All animal experiments were carried out in accordance with the Guide for the Care and Use of Laboratory Animals of the National Institutes of Health and were approved by the Committee on the Ethics of Animal Experiments of the Second Military Medical University, China.
# (§4) HepG2 cells were harvested and resuspended in PBS. A total of 5 × 10^6 cells were subcutaneously injected into the right flank. Tumor volume was calculated using the following formula: V = (L × W^2)/2, where L is the length and W is the width of the tumor nodules measured with vernier calipers. Once the volume of the tumors reached 75–100 mm^3, the mice were randomly divided into three groups (n = 5). The mice were treated every other day for two weeks with tail vein injections of either vehicle (5% ethanol and 2.5% polyethylene glycol in saline), compound 7, or ISJ (5 mg/kg in the vehicle). Body weights were measured before each drug injection. After the 15th day, the mice were euthanized, and the tumors were isolated, weighed and photographed.
# HepG2 cells [3] = assay: Wound healing (migration) assay; type: cell-based, human; settings: 10 μM, 24 h
# Description: (§5) Cell migration and invasion potencies were studied using wound healing and Matrigel invasion assays. The wound healing assay was performed by scratching the cell surface with a 10 μL pipette tip. Then, the cells were treated with compound 7 and ISJ (10 μM) and incubated for 24 h before being photographed under a microscope (DMI3000 B, Leica). Wound closure was evaluated using ImageJ software. Invasion through a Matrigel-coated filter was measured in transwell chambers (Corning Costa) as described previously, with minor modifications. Briefly, HepG2 Cells (2 × 10^5/well) were suspended in serum-free medium and added to the upper chamber of the Matrigel plate. FBS (10%) was used as the chemoattractant in the lower chamber. After incubation for 24 h, the non-invading cells were removed from the upper surface of the insert membrane with a cotton swab. The invading cells were fixed with methanol and stained with Giemsa (Sigma). Cells in five randomly selected fields were photographed, and the numbers of cells that crossed the membrane were counted.
# HepG2 cells [4] = assay: Matrigel invasion assay; type: cell-based, human; settings: Homo sapiens, HepG2, 24 h, read-out: inhibition of invasiveness compared to control
# Description: as §5
# [5] = Body weight in xenograft study; type: in vivo, BALB/c-nu nude mice; settings: 5 mg/kg, tail vein, two weeks
# Description: as §4
# HepG2 cells [6] = assay: Apoptosis assay, Annexin V-FITC/PI flow cytometry; type: cell-based, human; settings: 48 h
# Description: To further explore the potential mechanisms of the antiproliferative effects induced by compound 7 and ISJ, Annexin V-FITC/PI double staining was performed to quantify cellular apoptosis by flow cytometry. HepG2 cells were cultured for 48 h in the absence or presence of compound 7 or ISJ at different concentrations (5 or 15 μM).
# HepG2 cells were seeded in six-well plates (5 × 10^5 cells/mL) for 24 h and then treated with various amounts of the compounds or 1% DMSO (as control). After 48 h, the cells floating in the medium were collected, and the adherent cells were detached with 0.05% trypsin, washed twice with cold PBS, and centrifuged at 1000 rpm for 5 min at 4 °C. Subsequently, HepG2 cells were gently resuspended in the binding buffer. Thereafter, the cells were stained using the Annexin V-FITC/PI apoptosis detection kit (BD Biosciences, San Jose, CA, USA). After incubation at room temperature for 15 min in the dark, the apoptotic cells were immediately analyzed by flow cytometry (FACS Calibur).
# PKC = PKC activity assay (PepTag non-radioactive, HepG2 lysates); type: biochemical, human; settings: 3 h
# Description: The activity of PKC in HepG2 cells was assessed 3 h after the addition of compound 7 or ISJ by measuring the phosphorylation of a PKC-specific target peptide. Compared to the basal control (in the absence of any compound), PKC activity was inhibited by compound 7 and ISJ.
# Figure 3 Effects of compound 7 and ISJ on PKC activity in HepG2 cells. The proteins from lysed HepG2 cells were prepared and measured for their ability to phosphorylate a PKC-specific peptide substrate (PLSRTLSVAAK) in a non-radioactive assay. (a) Lanes 1 and 2 show the negative (water only) and positive controls (with 20 ng purified PKC). Supernatants from HepG2 cells were subjected to the PKC activity assay in the absence (basal control, lane 3) or presence (lanes 4–7) of the compounds. Compound 7 (lanes 4 and 5) and ISJ (lanes 6 and 7) were added separately at 10 and 5 μM. (b) Quantification of (a); *P < 0.05 versus the basal control. Data are shown as the mean ± SD of three independent experiments.
# The PKC activity assay was carried out as previously reported, according to the instructions of the PepTag non-radioactive PKC assay kit (Promega)[60]. The bands were photographed using the Syngene GBOX-iCHEMI-XR system, and the phosphorylated bands were cut out for quantification measurement at 570 nm.
# advanced HCC = system: advanced HCC; parameters: method as in PMID 18650514; settings: patients with advanced HCC; cited from earlier work
SMILES,Inhibitory Ratio (%) HepG2 (HepG2 cells [1]),Inhibitory Ratio (%) QGY-7703 (QGY-7703 cells),further results
"O=c1[nH]cc(F)c(=O)[nH]1 [5-Fu, 5-Fluorouracil, reference compound]",–,–,IC50 (HepG2 cells [1]): 12.48 ± 0.11 µM; IC50 (QGY-7703 cells): 15.66 ± 0.07 µM; IC50 (SMMC-7721 cells): 14.6 ± 0.36 µM; IC50 (QSG-7701 hepatocytes): 0.6 ± 0.03 µM
COc1cc(OC)c2c(=O)c3ccc(OC)c(OC)c3oc2c1 [compound 5],22.61%,20.81%,melting point: 138 to 140 °C
O=c1c2ccc(O)c(O)c2oc2cc(O)cc(O)c12 [compound 6],13.80%,−0.66%,–
"O=c1c2ccc3c(c2oc2cc(O)cc(O)c12)OC(c1ccccc1)(c1ccccc1)O3 [compound 7, 7,9-dihydroxy-2,2-diphenyl-6H-[1,3]dioxolane[4,5-c]xanthen-6h-one]",90.99%,79.93%,"PKCζ expression in cytosol and cell membrane (PKCζ): reduced; IC50 (HepG2 cells [1]): 7.34 ± 0.09 µM; H&E staining of xenograft tumors [2]: significant tissue death; IHC c-PARP, c-Cas3 and c-Cas9 levels in tumors [2]: upregulated expression; immunoblot c-PARP, c-Cas3 and c-Cas9 levels in tumor tissue [2]: increased; IC50 (QGY-7703 cells): 9.88 ± 0.18 µM; reduction of tumor weight compared to controls (HepG2 xenografts): 49.4%; decrease of HepG2 cell migration compared to control (HepG2 cells [3]): 76.4%; inhibition at 10 µM (HepG2 cells [4]): 69%; change in body weight compared to vehicle-treated controls [5]: no significant change; IC50 (SMMC-7721 cells): 6.35 ± 0.42 µM; number of apoptotic cells compared to the control group (HepG2 cells [6]; 5 μM): did not alter; percentage of apoptotic cells (HepG2 cells [6]; 15 μM): increased significantly; IC50 (QSG-7701 hepatocytes): 53.51 ± 0.13 µM; inhibition of PKC activity compared to the basal control (PKC; 5 μM): 40.9%; inhibition of PKC activity compared to the basal control (PKC; 10 μM): 54.1%"
C#CC(C)(C)Oc1cc(O)c2c(=O)c3ccc4c(c3oc2c1)OC(c1ccccc1)(c1ccccc1)O4 [compound 8],6.88%,−9.85%,–
C#CC(C)(C)Oc1cc(OS(=O)(=O)c2ccc(C)cc2)c2c(=O)c3ccc4c(c3oc2c1)OC(c1ccccc1)(c1ccccc1)O4 [compound 9],12.46%,−3.98%,–
Cc1ccc(S(=O)(=O)Oc2cc3c(c4oc5c6c(ccc5c(=O)c24)OC(c2ccccc2)(c2ccccc2)O6)C=CC(C)(C)O3)cc1 [compound 10],18.01%,0.66%,–
Cc1ccc(S(=O)(=O)Oc2cc3c(c4oc5c(O)c(O)ccc5c(=O)c24)C=CC(C)(C)O3)cc1 [compound 11],45.36%,21.44%,–
COc1ccc2c(=O)c3c(OC)cc(OC)c(C=O)c3oc2c1OC [compound 12],26.12%,20.97%,–
CCOC(=O)/C=C/c1c(OC)cc(OC)c2c(=O)c3ccc(OC)c(OC)c3oc12 [compound 13],47.29%,16.17%,–
CCOC(=O)[C@@H](O)[C@H](O)c1c(OC)cc(OC)c2c(=O)c3ccc(OC)c(OC)c3oc12 [compound 14],25.40%,13.15%,–
COc1ccc2c(=O)c3c(OC)cc(OC)c(I)c3oc2c1OC [compound 15],24.07%,−1.75%,–
COc1ccc2c(=O)c3c(OC)cc(OC)c(/C=C/C(C)(C)O)c3oc2c1OC [compound 16],15.95%,13.26%,–
CNC(=O)c1cc(Oc2ccc(NC(=O)Nc3ccc(Cl)c(C(F)(F)F)c3)cc2)ccn1 [sorafenib],–,–,improvement of overall survival (advanced HCC): approximately three
